Experiments:
[1] = system: barnyardgrass; assay: Test A pre-/postemergence herbicide test; format: in vivo, Echinochloa crus-galli
How it was run: (§1)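 Visual injury ratings, 0 = no effect, 100 = complete control, taken ~10 days after treatment against untreated greenhouse controls. Preemergence: directed soil spray onto seeded loam/sand pots. Postemergence: spray onto plants at one- to two-leaf stage, 2–10 cm tall.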

[2] = system: kochia; assay: Test A pre-/postemergence herbicide test; format: in vivo, Kochia scoparia; details: for Plant response rating, Kochia: 0 to 100 scale
How it was run: as §1

[3] = system: ragweed; assay: Test A pre-/postemergence herbicide test; format: in vivo, Ambrosia elatior; details: for Plant response rating, Ragweed: 0 to 100 scale
How it was run: as §1

[4] = system: ryegrass, Italian; assay: Test A pre-/postemergence herbicide test; format: in vivo, Lolium multiflorum; details: for Plant response rating, Ryegrass, Italian: 0 to 100 scale
How it was run: as §1

[5] = system: giant foxtail; assay: Test A pre-/postemergence herbicide test; format: in vivo, Setaria faberii; details: for Plant response rating, Foxtail, Giant: 0 to 100 scale
How it was run: as §1

[6] = system: pigweed; assay: Test A pre-/postemergence herbicide test; format: in vivo, Amaranthus retroflexus; details: for Plant response rating, Pigweed: 0 to 100 scale
How it was run: as §1

[7] = system: wheat; assay: Test A pre-/postemergence herbicide test; format: in vivo, Triticum aestivum; details: Postemergence; for Plant response rating, Wheat: 125 g ai/ha, 0 to 100 scale, 0 no effect, 100 complete control; for Wheat plant response rating (0 to 100 scale, 0 is no effect, 100 is complete control): 500 g ai/ha
How it was run: as §1

[8] = system: corn; assay: Test A pre-/postemergence herbicide test; format: in vivo, Zea mays; details: Postemergence; for Plant response rating, Corn: 125 g ai/ha, 0 to 100 scale, 0 no effect, 100 complete control; for Corn plant response rating (0 to 100 scale, 0 is no effect, 100 is complete control): 500 g ai/ha
How it was run: as §1

[9] = system: blackgrass; assay: Test A postemergence herbicide test; format: in vivo, Alopecurus myosuroides; details: for Plant response rating, Blackgrass: 125 g ai/ha, 0 to 100 scale, 0 no effect, 100 complete control; for Blackgrass plant response rating (0 to 100 scale, 0 is no effect, 100 is complete control): 500 g ai/ha
How it was run: (§2)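 Visual injury rating, 0 (no effect) to 100 (complete control), versus untreated controls ~10 days after treatment. Postemergence spray applied at one- to two-leaf stage, plants 2–10 cm tall, potted in loam soil/sand. Greenhouse-held.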

[10] = system: galium; assay: Test A postemergence herbicide test; format: in vivo, Galium aparine; details: for Plant response rating, Galium: 125 g ai/ha, 0 to 100 scale, 0 no effect, 100 complete control; for Galium plant response rating (0 to 100 scale, 0 is no effect, 100 is complete control): 500 g ai/ha
How it was run: as §2

[11] = system: rice; assay: Test B flooded paddy test; format: in vivo, Oryza sativa; details: 500 g ai/ha, Flood; scale of 0 to 100 where 0 is no effect and 100 is complete control
How it was run: (§3)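 Visual ratings from 0, meaning no effect, up to 100, meaning complete control, were made by comparison with untreated controls 13 to 15 days after treatment. Test compounds went straight into floodwater standing 3 cm over the soil of pots holding 2-leaf seedlings.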

[12] = system: sedge, umbrella; assay: Test B flooded paddy test; format: in vivo, Cyperus difformis; details: 500 g ai/ha, Flood; scale of 0 to 100 where 0 is no effect and 100 is complete control
How it was run: as §3

[13] = system: ducksalad; assay: Test B flooded paddy test; format: in vivo, Heteranthera limosa; details: 500 g ai/ha, Flood; scale of 0 to 100 where 0 is no effect and 100 is complete control
How it was run: as §3

[14] = system: barnyardgrass; assay: Test B flooded paddy test; format: in vivo, Echinochloa crus-galli; details: 500 g ai/ha, Flood; scale of 0 to 100 where 0 is no effect and 100 is complete control
How it was run: as §3

[15] = 125 g ai/ha, visual rating, 0 to 100 scale, 0 no effect, 100 complete control, approximately 10 days, preemergence
[16] = Postemergence, 125 g ai/ha, 0 to 100 scale, 0 no effect, 100 complete control
[17] = preemergence, 500 g ai/ha, 0 to 100 scale (0 no effect, 100 complete control)
[18] = 125 g ai/ha, visual rating, 0 no effect, 100 complete control, approximately 10 days, preemergence
[19] = Postemergence, 125 g ai/ha, 0 no effect, 100 complete control

Structure (SMILES)	Plant response rating, Barnyardgrass [1, 15]	Plant response rating, Barnyardgrass [1, 16]	Barnyardgrass plant response rating (0 to 100 scale, 0 is no effect, 100 is complete control) ([1]; Postemergence, 500 g ai/ha)	Plant response rating, Barnyardgrass [1, 17]	Plant response rating, Kochia [2, 18]	Plant response rating, Kochia [2, 19]	Kochia plant response rating (0 to 100 scale, 0 is no effect, 100 is complete control) ([2]; Postemergence, 500 g ai/ha)	Plant response rating, Kochia ([2]; preemergence, 500 g ai/ha)	Plant response rating, Ragweed [3, 18]	Plant response rating, Ragweed [3, 19]	Ragweed plant response rating (0 to 100 scale, 0 is no effect, 100 is complete control) ([3]; Postemergence, 500 g ai/ha)	Plant response rating, Ragweed ([3]; preemergence, 500 g ai/ha)	Plant response rating, Ryegrass, Italian [4, 18]	Plant response rating, Ryegrass, Italian [4, 19]	Ryegrass, Italian plant response rating (0 to 100 scale, 0 is no effect, 100 is complete control) ([4]; Postemergence, 500 g ai/ha)	Plant response rating, Ryegrass, Italian ([4]; preemergence, 500 g ai/ha)	Plant response rating, Foxtail, Giant [5, 18]	Plant response rating, Foxtail, Giant [5, 19]	Foxtail, Giant plant response rating (0 to 100 scale, 0 is no effect, 100 is complete control) ([5]; Postemergence, 500 g ai/ha)	Plant response rating, Foxtail, Giant ([5]; preemergence, 500 g ai/ha)	further results
COc1cc(C2CNC(=O)C2C(=O)Nc2ccccc2Cl)ccc1F (racemic) [Compound 133]	20	30	80	30	0	0	0	0	0	0	0	0	0	0	0	0	30	20	50	90	Plant response rating, Pigweed [6, 18]: 0; Plant response rating, Pigweed [6, 19]: 0; Pigweed plant response rating (0 to 100 scale, 0 is no effect, 100 is complete control) ([6]; Postemergence, 500 g ai/ha): 0; Plant response rating, Pigweed ([6]; preemergence, 500 g ai/ha): 0; Plant response rating, Wheat [7]: 0; Wheat plant response rating (0 to 100 scale, 0 is no effect, 100 is complete control) [7]: 0; Plant response rating, Corn [8]: 0; Corn plant response rating (0 to 100 scale, 0 is no effect, 100 is complete control) [8]: 0; Plant response rating, Blackgrass [9]: 0; Blackgrass plant response rating (0 to 100 scale, 0 is no effect, 100 is complete control) [9]: 0; Plant response rating, Galium [10]: 0; Galium plant response rating (0 to 100 scale, 0 is no effect, 100 is complete control) [10]: 0; Plant response rating, Rice [11]: 0; Plant response rating, Sedge, Umbrella [12]: 0; Plant response rating, Ducksalad [13]: 60; Plant response rating, Barnyardgrass [14]: 30
Cc1cc(C2CNC(=O)C2C(=O)Nc2ccccc2Cl)ccc1F (racemic) [Compound 143]	60	50	90	90	30	0	0	30	0	0	0	0	0	0	0	0	30	20	30	90	Plant response rating, Pigweed [6, 18]: 0; Plant response rating, Pigweed [6, 19]: 0; Pigweed plant response rating (0 to 100 scale, 0 is no effect, 100 is complete control) ([6]; Postemergence, 500 g ai/ha): 0; Plant response rating, Pigweed ([6]; preemergence, 500 g ai/ha): 0; Plant response rating, Wheat [7]: 0; Wheat plant response rating (0 to 100 scale, 0 is no effect, 100 is complete control) [7]: 0; Plant response rating, Corn [8]: 0; Corn plant response rating (0 to 100 scale, 0 is no effect, 100 is complete control) [8]: 0; Plant response rating, Blackgrass [9]: 0; Blackgrass plant response rating (0 to 100 scale, 0 is no effect, 100 is complete control) [9]: 0; Plant response rating, Galium [10]: 0; Galium plant response rating (0 to 100 scale, 0 is no effect, 100 is complete control) [10]: 40; Plant response rating, Rice [11]: 0; Plant response rating, Sedge, Umbrella [12]: 0; Plant response rating, Ducksalad [13]: 100; Plant response rating, Barnyardgrass [14]: 35
Cc1ccc(C2CNC(=O)C2C(=O)Nc2ccccc2F)cc1F (racemic) [Compound 144]	90	90	90	90	0	0	0	0	0	0	0	0	0	0	40	20	60	40	70	80	Plant response rating, Pigweed [6, 18]: 0; Plant response rating, Pigweed [6, 19]: 0; Pigweed plant response rating (0 to 100 scale, 0 is no effect, 100 is complete control) ([6]; Postemergence, 500 g ai/ha): 0; Plant response rating, Pigweed ([6]; preemergence, 500 g ai/ha): 0; Plant response rating, Wheat [7]: 0; Wheat plant response rating (0 to 100 scale, 0 is no effect, 100 is complete control) [7]: 0; Plant response rating, Corn [8]: 0; Corn plant response rating (0 to 100 scale, 0 is no effect, 100 is complete control) [8]: 20; Plant response rating, Blackgrass [9]: 0; Blackgrass plant response rating (0 to 100 scale, 0 is no effect, 100 is complete control) [9]: 30; Plant response rating, Galium [10]: 10; Galium plant response rating (0 to 100 scale, 0 is no effect, 100 is complete control) [10]: 70; Plant response rating, Rice [11]: 0; Plant response rating, Sedge, Umbrella [12]: 0; Plant response rating, Ducksalad [13]: 100; Plant response rating, Barnyardgrass [14]: 65
Cc1ccc(C2CNC(=O)C2C(=O)Nc2ccccc2Cl)cc1F (racemic) [Compound 148]	30	50	90	90	30	0	0	30	0	0	0	0	0	0	0	0	40	20	30	90	Plant response rating, Pigweed [6, 18]: 0; Plant response rating, Pigweed [6, 19]: 0; Pigweed plant response rating (0 to 100 scale, 0 is no effect, 100 is complete control) ([6]; Postemergence, 500 g ai/ha): 0; Plant response rating, Pigweed ([6]; preemergence, 500 g ai/ha): 0; Plant response rating, Wheat [7]: 0; Wheat plant response rating (0 to 100 scale, 0 is no effect, 100 is complete control) [7]: 0; Plant response rating, Corn [8]: 0; Corn plant response rating (0 to 100 scale, 0 is no effect, 100 is complete control) [8]: 0; Plant response rating, Blackgrass [9]: 0; Blackgrass plant response rating (0 to 100 scale, 0 is no effect, 100 is complete control) [9]: 0; Plant response rating, Galium [10]: 0; Galium plant response rating (0 to 100 scale, 0 is no effect, 100 is complete control) [10]: 40; Plant response rating, Rice [11]: 0; Plant response rating, Sedge, Umbrella [12]: 0; Plant response rating, Ducksalad [13]: 100; Plant response rating, Barnyardgrass [14]: 40
Cc1ccc(C2CNC(=O)C2C(=O)Nc2ccccc2F)cc1 (racemic) [Compound 149]	90	70	80	90	10	50	60	70	60	30	40	80	20	10	50	70	70	40	70	90	Plant response rating, Pigweed [6, 18]: 0; Plant response rating, Pigweed [6, 19]: 0; Pigweed plant response rating (0 to 100 scale, 0 is no effect, 100 is complete control) ([6]; Postemergence, 500 g ai/ha): 0; Plant response rating, Pigweed ([6]; preemergence, 500 g ai/ha): 0; Plant response rating, Wheat [7]: 0; Wheat plant response rating (0 to 100 scale, 0 is no effect, 100 is complete control) [7]: 20; Plant response rating, Corn [8]: 10; Corn plant response rating (0 to 100 scale, 0 is no effect, 100 is complete control) [8]: 70; Plant response rating, Blackgrass [9]: 30; Blackgrass plant response rating (0 to 100 scale, 0 is no effect, 100 is complete control) [9]: 40; Plant response rating, Galium [10]: 50; Galium plant response rating (0 to 100 scale, 0 is no effect, 100 is complete control) [10]: 60; Plant response rating, Rice [11]: 0; Plant response rating, Sedge, Umbrella [12]: 0; Plant response rating, Ducksalad [13]: 100; Plant response rating, Barnyardgrass [14]: 70
